Reference: patent US10787452B2 (Vertex Pharmaceuticals Incorporated, priority 2012, dated 2020)

Test system: HCT116 colorectal cancer cells
Assay: Cisplatin sensitization assay (96 h cell viability MTS);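 also: compound concentration needed to lower the Cisplatin-alone IC50 by a set fold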
Type: cell-based
Conditions: 96 h MTS, compound plus Cisplatin
How it was run: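 HCT116 cells were co-treated with compound and cisplatin, each in 2-fold serial dilutions from a 10 μM top final concentration, as a full matrix. After 96 h at 37 °C, 5% CO2, viability was read by MTS following a 1 h incubation with reagent.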

Question: How did the “Cisplatin Sensitization Assay” value turn out when N#CCc1cnc2c(C(=O)Nc3cnccc3OCCO)c(N)nn2c1 [I-O-33, 2-amino-6-(cyanomethyl)-N-(4-(2-hydroxyethoxy)pyridin-3-yl)pyrazolo[1,5-a]pyrimidine-3-carboxamide] was run?
Answer: ++ (Compounds with a Cisplatin sensitization value >0.02 μM but <0.2 μM are marked with “++.”)

Question: For Cn1cncc1-c1ccncc1NC(=O)c1c(N)nn2cc(F)cnc12 [I-C-56, 2-amino-6-fluoro-N-(4-(1-methyl-1H-imidazol-5-yl)pyridin-3-yl)pyrazolo[1,5-a]pyrimidine-3-carboxamide], which “Cisplatin Sensitization Assay” value is on record?
Answer: +++ (Compounds with a Cisplatin sensitization value of <0.02 μM are marked with “+++.”)

Question: CN1CCC[C@H]1C(=O)N1CCN(c2c(F)cncc2NC(=O)c2c(N)nn3cc(F)cnc23)CC1 [I-N-157, (S)-2-amino-6-fluoro-N-(5-fluoro-4-(4-(1-methylpyrrolidine-2-carbonyl)piperazin-1-yl)pyridin-3-yl)pyrazolo[1,5-a]pyrimidine-3-carboxamide] was tested. Which “Cisplatin Sensitization Assay” value did it give?
Answer: ++ (Compounds with a Cisplatin sensitization value >0.02 μM but <0.2 μM are marked with “++.”)

Question: How did the “Cisplatin Sensitization Assay” value turn out when CC(C)N1CCN(c2ccncc2NC(=O)c2c(N)nn3cc(Cl)cnc23)CC1 [I-N-39, 2-amino-6-chloro-N-(4-(4-isopropylpiperazin-1-yl)pyridin-3-yl)pyrazolo[1,5-a]pyrimidine-3-carboxamide] was run?
Answer: ++ (Compounds with a Cisplatin sensitization value >0.02 μM but <0.2 μM are marked with “++.”)

Question: Cc1ccn(-c2ccncc2NC(=O)c2c(N)nn3cc(F)cnc23)n1 [I-N-225, 2-amino-6-fluoro-N-(4-(3-methyl-1H-pyrazol-1-yl)pyridin-3-yl)pyrazolo[1,5-a]pyrimidine-3-carboxamide] was tested. Which “Cisplatin Sensitization Assay” value did it give?
Answer: ++ (Compounds with a Cisplatin sensitization value >0.02 μM but <0.2 μM are marked with “++.”)

Question: With Cc1ccc(-c2ccncc2NC(=O)c2c(N)nn3cc(F)cnc23)cn1 [I-C-22, 2-amino-6-fluoro-N-(6-methyl-[3,4′-bipyridin]-3′-yl)pyrazolo[1,5-a]pyrimidine-3-carboxamide] as the compound, how does the “Cisplatin Sensitization Assay” value read?
Answer: ++ (Compounds with a Cisplatin sensitization value >0.02 μM but <0.2 μM are marked with “++.”)

Question: With Nc1nn2cc(Cl)cnc2c1C(=O)Nc1cnccc1OC1CN2CCC1CC2 (centres unmarked) [I-O-62, 2-amino-6-chloro-N-(4-(quinuclidin-3-yloxy)pyridin-3-yl)pyrazolo[1,5-a]pyrimidine-3-carboxamide] as the compound, how does the “Cisplatin Sensitization Assay” value read?
Answer: +++ (Compounds with a Cisplatin sensitization value of <0.02 μM are marked with “+++.”)

Question: How did the “Cisplatin Sensitization Assay” value turn out when CN(C)C1CCCN(c2ccncc2NC(=O)c2c(N)nn3cc(Cl)cnc23)C1 (centres unmarked) [I-N-40, 2-amino-6-chloro-N-(4-(3-(dimethylamino)piperidin-1-yl)pyridin-3-yl)pyrazolo[1,5-a]pyrimidine-3-carboxamide] was run?
Answer: ++ (Compounds with a Cisplatin sensitization value >0.02 μM but <0.2 μM are marked with “++.”)

Question: Cc1nc(C)n(-c2ccncc2NC(=O)c2c(N)nn3cc(F)cnc23)n1 [I-N-218, 2-amino-N-(4-(3,5-dimethyl-1H-1,2,4-triazol-1-yl)pyridin-3-yl)-6-fluoropyrazolo[1,5-a]pyrimidine-3-carboxamide] was tested. Which “Cisplatin Sensitization Assay” value did it give?
Answer: + (Compounds with a Cisplatin sensitization value >0.2 μM but <5 μM are marked with “+.”)

Question: How did the “Cisplatin Sensitization Assay” value turn out when CN1CCC(N(C)S(=O)(=O)C2CCN(c3c(F)cncc3NC(=O)c3c(N)nn4cc(F)cnc34)CC2)CC1 [I-N-148, 2-amino-6-fluoro-N-(5-fluoro-4-(4-(N-methyl-N-(1-methylpiperidin-4-yl)sulfamoyl)piperidin-1-yl)pyridin-3-yl)pyrazolo[1,5-a]pyrimidine-3-carboxamide] was run?
Answer: +++ (Compounds with a Cisplatin sensitization value of <0.02 μM are marked with “+++.”)

Question: How did the “Cisplatin Sensitization Assay” value turn out when CN(C)CCN1CCN(c2ccncc2NC(=O)c2c(N)nn3cc(Cl)cnc23)CC1 [I-N-49, 2-amino-6-chloro-N-(4-(4-(2-(dimethylamino)ethyl)piperazin-1-yl)pyridin-3-yl)pyrazolo[1,5-a]pyrimidine-3-carboxamide] was run?
Answer: +++ (Compounds with a Cisplatin sensitization value of <0.02 μM are marked with “+++.”)

Question: Which “Cisplatin Sensitization Assay” value does the source give for Nc1nn2cc(F)cnc2c1C(=O)Nc1cncc(F)c1N1CCC(C(=O)N2CCN(C3CCC3)CC2)CC1 [I-G-35, 2-amino-N-(4-(4-(4-cyclobutylpiperazine-1-carbonyl)piperidin-1-yl)-5-fluoropyridin-3-yl)-6-fluoropyrazolo[1,5-a]pyrimidine-3-carboxamide] here?
Answer: +++ (Compounds with a Cisplatin sensitization value of <0.02 μM are marked with “+++.”)

Question: With Cc1nncn1-c1ccncc1NC(=O)c1c(N)nn2cc(F)cnc12 [I-N-263, 2-amino-6-fluoro-N-(4-(3-methyl-4H-1,2,4-triazol-4-yl)pyridin-3-yl)pyrazolo[1,5-a]pyrimidine-3-carboxamide] as the compound, how does the “Cisplatin Sensitization Assay” value read?
Answer: + (Compounds with a Cisplatin sensitization value >0.2 μM but <5 μM are marked with “+.”)

Question: Which “Cisplatin Sensitization Assay” value does the source give for CN(C)C(=O)C1CCCN(c2ccncc2NC(=O)c2c(N)nn3cc(F)cnc23)C1 (centres unmarked) [I-N-290, 2-amino-N-(4-(3-(dimethylcarbamoyl)piperidin-1-yl)pyridin-3-yl)-6-fluoropyrazolo[1,5-a]pyrimidine-3-carboxamide] here?
Answer: ++ (Compounds with a Cisplatin sensitization value >0.02 μM but <0.2 μM are marked with “++.”)

Question: With CC1CN(c2ccncc2NC(=O)c2c(N)nn3cc(Cl)cnc23)CCN1C (centres unmarked) [I-N-54, 2-amino-6-chloro-N-(4-(3,4-dimethylpiperazin-1-yl)pyridin-3-yl)pyrazolo[1,5-a]pyrimidine-3-carboxamide] as the compound, how does the “Cisplatin Sensitization Assay” value read?
Answer: +++ (Compounds with a Cisplatin sensitization value of <0.02 μM are marked with “+++.”)

Question: Which “Cisplatin Sensitization Assay” value does the source give for Nc1nn2cc(F)cnc2c1C(=O)Nc1cncc(F)c1N1CCN2C(=O)CCC[C@H]2C1 [I-N-279, (S)-2-amino-6-fluoro-N-(5-fluoro-4-(6-oxohexahydro-1H-pyrido[1,2-a]pyrazin-2(6H)-yl)pyridin-3-yl)pyrazolo[1,5-a]pyrimidine-3-carboxamide] here?
Answer: +++ (Compounds with a Cisplatin sensitization value of <0.02 μM are marked with “+++.”)

Question: For COCCOc1ccncc1NC(=O)c1c(N)nn2cc(Cl)cnc12 [I-O-55, 2-amino-6-chloro-N-(4-(2-methoxyethoxy)pyridin-3-yl)pyrazolo[1,5-a]pyrimidine-3-carboxamide], which “Cisplatin Sensitization Assay” value is on record?
Answer: ++ (Compounds with a Cisplatin sensitization value >0.02 μM but <0.2 μM are marked with “++.”)

Question: With COc1cncc(NC(=O)c2c(N)nn3cc(F)cnc23)c1-c1cncn1C [I-C-81, 2-amino-6-fluoro-N-(5-methoxy-4-(1-methyl-1H-imidazol-5-yl)pyridin-3-yl)pyrazolo[1,5-a]pyrimidine-3-carboxamide] as the compound, how does the “Cisplatin Sensitization Assay” value read?
Answer: +++ (Compounds with a Cisplatin sensitization value of <0.02 μM are marked with “+++.”)

Question: For CN1CCN(c2ccncc2NC(=O)c2c(N)nn3cc(Cl)cnc23)CC1CO (centres unmarked) [I-N-63, 2-amino-6-chloro-N-(4-(3-(hydroxymethyl)-4-methylpiperazin-1-yl)pyridin-3-yl)pyrazolo[1,5-a]pyrimidine-3-carboxamide], which “Cisplatin Sensitization Assay” value is on record?
Answer: ++ (Compounds with a Cisplatin sensitization value >0.02 μM but <0.2 μM are marked with “++.”)

Question: How did the “Cisplatin Sensitization Assay” value turn out when Nc1nn2cc(Cl)cnc2c1C(=O)Nc1cnccc1N1CCC(N2CC[S+]([O-])CC2)CC1 [I-N-100, 2-amino-6-chloro-N-(4-(4-(1-oxidothiomorpholino)piperidin-1-yl)pyridin-3-yl)pyrazolo[1,5-a]pyrimidine-3-carboxamide] was run?
Answer: ++ (Compounds with a Cisplatin sensitization value >0.02 μM but <0.2 μM are marked with “++.”)

Question: With Nc1nn2cc(F)cnc2c1C(=O)Nc1cnccc1N1CCN(S(=O)(=O)C2CCOC2)CC1 (centres unmarked) [I-N-179, 2-amino-6-fluoro-N-(4-(4-((tetrahydrofuran-3-yl)sulfonyl)piperazin-1-yl)pyridin-3-yl)pyrazolo[1,5-a]pyrimidine-3-carboxamide] as the compound, how does the “Cisplatin Sensitization Assay” value read?
Answer: +++ (Compounds with a Cisplatin sensitization value of <0.02 μM are marked with “+++.”)

Question: Which “Cisplatin Sensitization Assay” value does the source give for Nc1nn2cc(F)cnc2c1C(=O)Nc1cncc(F)c1N1CCC(C(=O)N2CC(O)C2)CC1 [I-G-41, 2-amino-6-fluoro-N-(5-fluoro-4-(4-(3-hydroxyazetidine-1-carbonyl)piperidin-1-yl)pyridin-3-yl)pyrazolo[1,5-a]pyrimidine-3-carboxamide] here?
Answer: +++ (Compounds with a Cisplatin sensitization value of <0.02 μM are marked with “+++.”)

Question: How did the “Cisplatin Sensitization Assay” value turn out when Nc1nn2cc(Cl)cnc2c1C(=O)Nc1cnccc1N1CCN(CC(F)(F)F)CC1 [I-N-67, 2-amino-6-chloro-N-(4-(4-(2,2,2-trifluoroethyl)piperazin-1-yl)pyridin-3-yl)pyrazolo[1,5-a]pyrimidine-3-carboxamide] was run?
Answer: +++ (Compounds with a Cisplatin sensitization value of <0.02 μM are marked with “+++.”)

Question: For CN1CCN(c2ccncc2NC(=O)c2c(N)nn3cc(C(C)(C)C#N)cnc23)CC1 [I-N-76, 2-amino-6-(2-cyanopropan-2-yl)-N-(4-(4-methylpiperazin-1-yl)pyridin-3-yl)pyrazolo[1,5-a]pyrimidine-3-carboxamide], which “Cisplatin Sensitization Assay” value is on record?
Answer: +++ (Compounds with a Cisplatin sensitization value of <0.02 μM are marked with “+++.”)

Question: Which “Cisplatin Sensitization Assay” value does the source give for Nc1nn2cc(F)cnc2c1C(=O)Nc1cncc(F)c1N1CCN(C(=O)C2CNCCO2)CC1 (centres unmarked) [I-N-172, 2-amino-6-fluoro-N-(5-fluoro-4-(4-(morpholine-2-carbonyl)piperazin-1-yl)pyridin-3-yl)pyrazolo[1,5-a]pyrimidine-3-carboxamide] here?
Answer: +++ (Compounds with a Cisplatin sensitization value of <0.02 μM are marked with “+++.”)

Question: Which “Cisplatin Sensitization Assay” value does the source give for CN1CCOCC1C(=O)N1CCN(c2c(F)cncc2NC(=O)c2c(N)nn3cc(F)cnc23)CC1 (centres unmarked) [I-N-227, 2-amino-6-fluoro-N-(5-fluoro-4-(4-(4-methylmorpholine-3-carbonyl)piperazin-1-yl)pyridin-3-yl)pyrazolo[1,5-a]pyrimidine-3-carboxamide] here?
Answer: +++ (Compounds with a Cisplatin sensitization value of <0.02 μM are marked with “+++.”)
